The values below come from PMC8777799, “Anti-α-Glucosidase and Antiglycation Activities of α-Mangostin and New Xanthenone Derivatives: Enzymatic Kinetics and Mechanistic Insights through In Vitro Studies” (Molecules, 2022).

The assay deals with α-glucosidase. Nature of the assay: pNPG colorimetric enzyme kinetics (Lineweaver–Burk; IC50 […]), supported by fluorescence quenching and circular dichroism. It counts as biochemical, Saccharomyces cerevisiae. Background: CD spectra are sensitive to the conformation of chiral molecules.

For the compound `COc1c(O)cc2oc3cc(O)c(CC=C(C)C)c(O)c3c(=O)c2c1CC=C(C)C` [α-mangostin, 1,3,6-trihydroxy-7-methoxy-2,8-bis(3-methylbut-2-en-1-yl)-9H-xanthen-9-one], affinity was put at a Ki of 30.3 µM.
